Test in series [1]: not given
The source holds these as a separate data set.

The target of series [2] is histone deacetylase (HeLa nuclear extracts). Put plainly: In vitro assay for inhibition of histone deacetylase (HeLa nuclear extracts, radiolabeled histone H4 peptide substrate). The note with it: HeLa nuclear extracts 60 μg/ml, 30 min, pH 7.4. Format: biochemical. How it is done:
The in vitro assay for inhibition of histone deacetylase (see example C.1) measures the inhibition of HDAC enzymatic activity obtained with the compounds of formula (I).
HeLa nuclear extracts (supplier: Biomol) were incubated at 60 μg/ml with 2×10^−8 M of radiolabeled peptide substrate. As a substrate for measuring HDAC activity a synthetic peptide, i.e. the amino acids 14-21 of histone H4, was used. The substrate is biotinylated at the NH2-terminal part with a 6-aminohexanoic acid spacer, and is protected at the COOH-terminal part by an amide group and specifically [^3H]-acetylated at lysine 16. The substrate, biotin-(6-aminohexanoic)Gly-Ala-([^3H]-acetyl-Lys-Arg-His-Arg-Lys-Val-NH2), was added in a buffer containing 25 mM Hepes, 1 M sucrose, 0.11 mg/ml BSA and 0.01% Triton X-100 at pH 7.4. After 30 min the deacetylation reaction was terminated by the addition of HCl and acetic acid. (final concentration 0.035 mM and 3.8 mM respectively). After stopping the reaction, the free ^3H-acetate was extracted with ethylacetate. After mixing and centrifugation, the radioactivity in an aliquot of the upper (organic) phase was counted in a β-counter.
For each experiment, controls (containing HeLa nuclear extract and DMSO without compound), a blank incubation (containing DMSO but no HeLa nuclear extract or compound) and samples (containing compound dissolved in DMSO and HeLa nuclear extract) were run in parallel. In first instance, compounds were tested at a concentration of 10^−5M. […] In each test the blank value was subtracted from both the control and the sample values. The control sample represented 100% of substrate deactylation. For each sample the radioactivity was expressed as a percentage of the mean value of the controls. […] Herein the effects of test compounds are expressed as pIC50 (the negative log value of the IC50-value).

Series [3] relates to human A2780 ovarian carcinoma cells. Put plainly: Antiproliferative activity on A2780 cells (MTT-based assay). It counts as cell-based. The settings on record: four days of incubation; for IC50: Homo sapiens, A2780, 96 h, read-out: Cellular activity pIC50 (converted). The protocol:
Cellular activity of the compounds of formula (I) was determined on A2780 tumour cells using a […] assay for cell toxicity or survival (Mosmann Tim, Journal of Immunological Methods 65: 55-63, 1983)(see example C.2).
All compounds tested were dissolved in DMSO and further dilutions were made in culture medium. Final DMSO concentrations never exceeded 0.1% (v/v) in cell proliferation assays, Controls contained A2780 cells and DMSO without compound and blanks contained DMSO but no cells. MTT was dissolved at 5 mg/ml in PBS. A glycine buffer comprised of 0.1 M glycine and 0.1 M NaCl buffered to pH 10.5 with NaOH (1 N) was prepared (all reagents were from Merck).
The human A2780 ovarian carcinoma cells (a kind gift from Dr. T. C. Hamilton [Fox Chase Cancer Centre, Pennsylvania, USA]) were cultured in RPMI 1640 medium supplemented with 2 mM L-glutamine, 50 μg/ml gentamicin and 10% fetal calf serum. Cells were routinely kept as monolayer cultures at 37° C. in a humidified 5% CO2 atmosphere. Cells were passaged once a week using a trypsin/EDTA solution at a split ratio of 1:40. All media and supplements were obtained from Life Technologies. Cells were free of mycoplasma contamination as determined using the Gen-Probe Mycoplasma Tissue Culture kit (supplier: BioMérieux).
Cells were seeded in NUNC™ 96-well culture plates (Supplier: Life Technologies) and allowed to adhere to the plastic overnight. Densities used for plating were 1500 cells per well in a total volume of 200 μl medium. After cell adhesion to the plates, medium was changed and drugs and/or solvents were added to a final volume of 200 μl. Following four days of incubation, medium was replaced by 200 μl fresh medium and cell density and viability was assessed using an MTT-based assay. To each well, 25 μl MTT solution was added and the cells were further incubated for 2 hours at 37° C. The medium was then carefully aspirated and the blue MTT-formazan product was solubilized by addition of 25 μl glycine buffer followed by 100 μl of DMSO. […] Within an experiment, the results for each experimental condition are the mean of 3 replicate wells. For initial screening purposes, compounds were tested at a single fixed concentration of 10^−6 M. For active compounds, the experiments were repeated to establish full concentration-response curves. For each experiment, controls (containing no drug) and a blank incubation (containing no cells or drugs) were run in parallel. The blank value was subtracted from all control and sample values. For each sample, the mean value for cell growth (in absorbance units) was expressed as a percentage of the mean value for cell growth of the control. […] Herein the effects of test compounds are expressed as pIC50 (the negative log value of the IC50-value).

A short description of series [4]: Kinetic solubility in aqueous media (nephelometer turbidity). The note with it: aqueous buffer, kinetic from dmso stock; phosphate citrate buffer pH 7.4, dilution from 5 mM DMSO stock; read-out: Solubility Score. Format: physicochemical. The protocol: Kinetic solubility in aqueous media measures the ability of a compound to stay in aqueous solution upon dilution (see example C.3).
DMSO-stock solutions are diluted with a single aqueous buffer solvent in 3 consecutive steps. For every dilution turbidity is measured with a nephelometer.
In the first dilution step, 10 μl of a concentrated stock-solution of the active compound, solubilized in DMSO (5 mM), was added to 100 μl phosphate citrate buffer pH 7.4 and mixed. In the second dilution step, an aliquot (20 μl) of the first dilution step was further dispensed in 100 μl phosphate citrate buffer pH 7.4 and mixed. Finally, in the third dilution step, a sample (20 μl) of the second dilution step was further diluted in 100 μl phosphate citrate buffer pH 7.4 and mixed. All dilutions were performed in 96-well plates. Immediately after the last dilution step the turbidity of the three consecutive dilution steps were measured with a nephelometer. Dilution was done in triplicate for each compound to exclude occasional errors. Based on the turbidity measurements a ranking is performed into 3 classes. Compounds with high solubility obtained a score of 3 and for this compounds the first dilution is clear. Compounds with medium solubility obtained a score of 2. For these compounds the first dilution is unclear and the second dilution is clear. […] The solubility of 11 compounds was measured.

Values after ≈ are worked out from the molar mass of the structure shown. Where two headings read alike, the source gives them in different places.

For `COc1cc(N)c(Cl)cc1C(=O)NC1CCN(CCCOc2ccc(F)cc2)CC1OC` (centres unmarked) [Cisapride], under “human, 15 min, 5 μM”, the “% metabolism” value is reported as 45%.
The molecule `O=C(NO)c1cnc(N2CCO[C@H](CNS(=O)(=O)c3ccc(-c4ccccc4)cc3)C2)nc1` [Compound 1] yielded a melting point in series [1] of 164 °C. The “Enzyme activity pIC50” value in series [2] was determined as 7.723. Also, the “Cellular activity pIC50” value in series [3] worked out at 6.232.
In turn, `O=C(NO)c1cnc(N2CCNC(CNS(=O)(=O)c3ccc4ccccc4c3)C2)nc1` (centres unmarked) [Compound 2] displayed a melting point in series [1] of 243 °C. Besides, the “Enzyme activity pIC50” value in series [2] is reported as 8.059. Further, the IC50 in series [3] was 2040 nM. In addition, the solubility in series [4] was under 75.8 µM.
Taken in the same sequence, the figures for `O=C(NO)c1cnc(N2CCN(Cc3ccccc3)C(CNS(=O)(=O)c3ccc4ccccc4c3)C2)nc1` (centres unmarked) [Compound 3] were 135 °C, 7.647, 2400 nM and under 75.8 µM.
The molecule `O=C(NO)c1cnc(N2CCOC(CNS(=O)(=O)c3ccc(-c4ccccc4)cc3)C2)nc1` (centres unmarked) [Compound 4] returned a melting point in series [1] of 163 °C. In series [2], the “Enzyme activity pIC50” value is 8.097. Besides, in series [3], the IC50 is 565 nM. The solubility in series [4] was under 75.8 µM.
`O=C(NO)c1ccc(N2CCOC(CNS(=O)(=O)c3ccc(-c4ccccc4)cc3)C2)nc1` (centres unmarked) [Compound 5] had a melting point in series [1] of 210 °C. For the same molecule, the “Enzyme activity pIC50” value in series [2] stood at 7.549. Besides, the IC50 in series [3] is 2050 nM.
Turning to `O=C(NO)c1cnc(N2CCOC(CNS(=O)(=O)c3ccc4ccccc4c3)C2)nc1` (centres unmarked) [Compound 6], in series [1], the melting point was determined as 179 °C. For the same molecule, the “Enzyme activity pIC50” value in series [2] was 7.421. Moreover, in series [3], the IC50 is 413 nM. Moreover, in series [4], the solubility is over 454 µM.
Taken in the same sequence, the figures for `O=C(NO)c1ccc(N2CCOC(CNS(=O)(=O)c3ccc4ccccc4c3)C2)nc1` (centres unmarked) [Compound 7] were 157 °C, 7.323, 2040 nM and over 454 µM.
In turn, `O=C(NO)c1cnc(N2CCOC(CNC(=O)c3ccc(-c4ccccc4)cc3)C2)nc1` (centres unmarked) [Compound 8] registered a melting point in series [1] of 290 °C. The “Enzyme activity pIC50” value in series [2] was determined as 7.487. Besides, the IC50 in series [3] was 36.5 nM. In series [4], the solubility is over 454 µM.
Molecule `O=C(NO)c1cnc(N2CCOC(CNC(=O)c3ccc4ccccc4c3)C2)nc1` (centres unmarked) [Compound 9] returned a melting point in series [1] of 246 °C. In addition, in series [2], the “Enzyme activity pIC50” value was determined as 7.609. In addition, in series [3], the IC50 is over 10000 nM. The solubility in series [4] is over 454 µM.
As for `O=C(NO)c1cnc(N2CCCC(CNS(=O)(=O)c3ccc4ccccc4c3)C2)nc1` (centres unmarked) [Compound 10], the melting point in series [1] was determined as 210 °C. In addition, the “Enzyme activity pIC50” value in series [2] is 7.65. Moreover, the IC50 in series [3] was 1080 nM. In series [4], the solubility is over 454 µM.
In series [1], `O=C(NO)c1cnc(N2CC[C@H](O)[C@H](CNS(=O)(=O)c3ccc4ccccc4c3)C2)nc1` [Compound 11] registered a melting point of 176 °C. Besides, the “Enzyme activity pIC50” value in series [2] is recorded as 7.553. Further, in series [3], the IC50 is over 10000 nM. In addition, the solubility in series [4] is over 454 µM.
For the molecule `O=C(NO)c1cnc(N2CCO[C@H](CNS(=O)(=O)c3ccc(-c4ccccc4)cc3)C2)nc1` [Compound 12], in series [2], the “Enzyme activity pIC50” value is on record as 7.528. Moreover, in series [3], the IC50 is 977 nM. Further, the solubility in series [4] was in the range of 75.8 to 454 µM (≈ 35.6 to 213 µg/mL).
As for `CN1CCN(c2ncc(C(=O)NO)cn2)CC1CNS(=O)(=O)c1ccc2ccccc2c1` (centres unmarked) [Compound 13], in series [2], the “Enzyme activity pIC50” value is given as 7.361. For the same molecule, in series [3], the IC50 was 1690 nM.
Take `O=C(NO)c1cnc(N2CCCC(NS(=O)(=O)c3ccc4ccccc4c3)C2)nc1` (centres unmarked) [Compound 14]: the IC50 in series [3] is 243 nM.
Consider `CCCO` [propanol], for which the “% metabolism” value (after 15 min incubation with microsomes (1 mg/ml), compound 5 μM, 37 degrees Celsius) is reported as 25%.

As a reminder, the melting point is the temperature of the solid-liquid transition. The term solubility denotes the concentration that dissolves in the medium under given conditions.

The values above are taken from patent US8501737B2, “Piperazinyl-, piperidinyl- and morpholinyl-derivatives as novel inhibitors of histone deacetylase” (Janssen Pharmaceutica N.V., priority 2002, dated 2013).
